Test results: patent US6869611B1, “Composition and method of effecting superficial chemical skin peels” (priority 1996, dated 2005)

What was measured:
[1] = saturation concentration / solubility of salicylic acid in solvent; format: physicochemical; details: solution temperature of 25° C.
[2] = cited from earlier work

For `O=C(O)c1ccccc1O` [salicylic acid, 2-hydroxybenzoic acid], the “saturation concentration of salicylic acid in ethanol” value [1] is given as over 30 wt % and the solubility in water [2] is given as “relatively insoluble in water”.
